The target of one assay is T1, TrxR in HCT116 cells (Homo sapiens, UniProt Q16881).
T1 sequence (Q16881 1-649): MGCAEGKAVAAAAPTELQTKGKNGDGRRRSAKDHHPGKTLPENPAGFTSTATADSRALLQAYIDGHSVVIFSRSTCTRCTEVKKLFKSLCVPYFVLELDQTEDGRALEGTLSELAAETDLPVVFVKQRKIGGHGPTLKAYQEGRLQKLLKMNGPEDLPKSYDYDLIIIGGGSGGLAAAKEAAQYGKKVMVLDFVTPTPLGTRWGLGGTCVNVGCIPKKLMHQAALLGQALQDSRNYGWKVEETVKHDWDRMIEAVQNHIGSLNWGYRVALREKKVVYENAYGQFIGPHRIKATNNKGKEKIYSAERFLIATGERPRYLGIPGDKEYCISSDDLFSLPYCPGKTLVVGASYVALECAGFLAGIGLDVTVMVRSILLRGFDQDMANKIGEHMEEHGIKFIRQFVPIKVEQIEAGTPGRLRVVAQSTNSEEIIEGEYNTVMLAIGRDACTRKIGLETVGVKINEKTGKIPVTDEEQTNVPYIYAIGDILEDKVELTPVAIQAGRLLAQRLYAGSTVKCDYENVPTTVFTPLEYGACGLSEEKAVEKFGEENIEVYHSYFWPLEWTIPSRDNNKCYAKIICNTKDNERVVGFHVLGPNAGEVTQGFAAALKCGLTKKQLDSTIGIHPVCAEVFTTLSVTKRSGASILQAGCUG
The assay can be described thus: Endogenous TrxR activity in cell lysates (DTNB reduction assay). It counts as cell-based.

Another assay addresses T2, Prdx1 (Homo sapiens, UniProt Q06830).
T2 construct: endogenous in cells; host or cells: HCT116 (GSH-depleted with BSO)
The assay can be described thus: Monomeric avidin pull-down and Prdx1 immunoprecipitation, identification of Prdx1 modification. It is filed as cell-based. As to conditions: GSH-depleted HCT116, 100 μM, 4 h. How it is done:
After separation by SDS-PAGE under reducing conditions and PageBlue® protein staining (Thermo scientific), bands of interest were excised, reduced with DTT, alkylated with iodoacetamide and in-gel digested with trypsin (Promega). Peptides were extracted with acetonitrile 50% in 0.2% formic acid and analyzed by Nano LC-MS/MS after partial evaporation in a speed-vac concentrator. LC-MS/MS experiments were performed on an NanoAcquity UPLC (Waters) coupled to a hybrid LTQ Orbitrap Velos mass spectrometer (Thermo Fisher Scientific) equipped with a nanoelectrospray source. Tryptic digests were loaded onto a nanoAcquity UPLC Trap column (Symmetry C18, 5 μm, 180 μm×20 mm, Waters) and washed with 0.2% formic acid at 20 μL/min for 5 min. Peptides were then eluted on a C18 reverse-phase nanoAcquity column (BEH130 C18, 1.7 μm, 75 μm×250 mm, Waters) with a linear gradient of 7-30% solvent B (H2O/CH3CN/HCOOH, 10:90:0.2, by vol.) for 85 min, 30-90% solvent B for 10 min, and 90% solvent B for 5 min, at a flow rate of 250 nL/min.
The mass spectrometer was operated in the data-dependent mode to automatically switch between MS and MS/MS acquisition. […] The exact parent mass is the ^12C isotope ion mass of the most intense isotopic pattern detected on the high resolution Orbitrap MS parallel scan and included in the MS/MS selection window. […]

A further assay has as its target T3, recombinant human GAPDH (Homo sapiens, UniProt P04406).
T3 construct: purchased Acris
The assay can be described thus: In vitro modification of GAPDH by Iniparib and I-NOBA. It is filed as binding. How it is done:
For biochemical analysis, recombinant human GAPDH (Acris) was first reduced by a 15,000-fold excess of DTT at 56° C. for 30 min, the reducing agent being removed thereafter by chloroform/methanol precipitation. […] Afterwards the samples were submitted or not to another reducing step with 25 mM DTT (56° C., 30 min), and after removal of DTT by chloroform/methanol precipitation, biotinylation of free cysteine sulfhydryl groups of GAPDH was performed with HPDP-biotin (N-[6-(Biotinamido)hexyl]-3′-(2′-pyridyldithio)propionamide) at […] for 2 h at 20° C.
Sample mixtures were then reduced or not with 25 mM DTT (56° C., 30 min). Intact molecular weights were measured by mass spectrometry. Liquid chromatography-electrospray ionization mass spectrometry (LC/MS) was carried out using LTQ-Orbitrap Elite mass spectrometer (Thermo Fisher Scientific) coupled to a Famos Autosampler and an Ultimate Pump (LC-Packing, Dionex). Reverse phase chromatography was performed with a binary buffer system consisting of 0.2% formic acid (buffer A) and 80% acetonitrile in 0.2% formic acid (buffer B). After dilution to 1 pmole/μl in 0.2% formic acid, 1 μl of samples were loaded on a Poros 1 R/H column (75 μm×15 cm, Dionex). […] Mass spectra (m/z 500-2,000) were acquired in the positive ITMS mode with 5 μscans accumulation, a target value of 30,000 and a maximum injection time of 100 ms. The acquired raw files were converted in MassLynx format (Waters) using an home-made program and then were deconvoluted using MaxEnt software (Waters).

Another assay has as its system MDA-MB-231 cells. The assay can be described thus: ROS production (CellROXOrange). It is filed as cell-based, human. Particulars: GSH-depleted MDA-MB-231, 100 μM, 4 h.
Where [1] appears, read: HCT-116, read-out: inhibition of TrxR reductase activity, 100 μM, 4 h, BSO-pretreated HCT116.
Where [2] appears, read: HCT-116, read-out: inhibition of TrxR reductase activity, 100 μM, first 2 h of incubation, BSO-pretreated HCT116.

Consider two molecules from patent US20200113852A1, “METHODS OF PATIENT SELECTION AND TREATING TRXR- OR PRDX-OVEREXPRESSED CANCERS” (TRIACT THERAPEUTICS, INC., priority 2017, published 2020).

Read-outs that look alike come from different tables or passages of the source.

T3 sequence (P04406 whole entry): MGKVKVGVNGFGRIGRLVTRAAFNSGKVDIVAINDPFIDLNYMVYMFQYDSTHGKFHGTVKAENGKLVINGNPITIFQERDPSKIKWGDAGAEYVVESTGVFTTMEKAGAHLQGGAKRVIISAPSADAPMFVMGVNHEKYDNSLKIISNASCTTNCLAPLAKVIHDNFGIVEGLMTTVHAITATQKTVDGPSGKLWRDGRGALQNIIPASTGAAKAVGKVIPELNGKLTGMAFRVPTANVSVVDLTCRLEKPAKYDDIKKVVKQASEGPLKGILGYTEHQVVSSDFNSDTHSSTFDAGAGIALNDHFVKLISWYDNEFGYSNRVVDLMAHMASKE
T2 sequence (Q06830 2-199 limits assumed): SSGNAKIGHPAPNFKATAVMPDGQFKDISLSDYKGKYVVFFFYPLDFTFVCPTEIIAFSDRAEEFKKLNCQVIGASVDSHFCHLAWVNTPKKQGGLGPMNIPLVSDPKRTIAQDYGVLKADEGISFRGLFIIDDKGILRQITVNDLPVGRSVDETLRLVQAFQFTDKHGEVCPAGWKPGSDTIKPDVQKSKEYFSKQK

In the case of `O=C(CCCC[C@@H]1SC[C@@H]2NC(=O)N[C@@H]21)NCCNC(=O)c1ccc(I)c([N+](=O)[O-])c1` [Iniparib-biotin, 4-iodo-3-nitro-N-(2-(5-((3 aS,4S,6aR)-2-oxohexahydro-1H-thieno[3,4-d]imidazol-4-yl)pentanamido)ethyl)benzamide], the figures for the inhibition at 100 µM at TrxR in HCT116 cells (setting [1]) and at TrxR in HCT116 cells (setting [2]) were about 100% and over 90%, respectively. In addition, the “Prdx1 modification after in-cell bio activation” value on Prdx1 is listed as “modifies Cys173”. The “modification of free thiol groups in purified GAPDH” value on recombinant human GAPDH is on record as “did not modify free thiol groups”.

With `NC(=O)c1ccc(I)c([N+](=O)[O-])c1` [Iniparib, 4-iodo-3-nitrobenzamide], the inhibition at 100 µM is about 100% on TrxR in HCT116 cells (setting [1]) and over 90% on TrxR in HCT116 cells (setting [2]). Besides, the “Prdx1 modification after in-cell bio activation” value on Prdx1 was “modifies Cys173”. The ROS entry in the assay on MDA-MB-231 cells is listed as “accumulation of ROS”. Also, the “covalent modification of GAPDH (MS analysis)” value at recombinant human GAPDH (purified GAPDH incubated with compound) is “not able to covalently modify the protein”. Further, the “blocking of free thiol groups in GAPDH” value on recombinant human GAPDH (purified GAPDH, biotin-HPDP labeling, streptavidin-HRP blot) is recorded as “ineffective”.
